This note sets out measurements from ChEMBL document CHEMBL4002639, “DL-3-n-butylphthalide-Edaravone hybrids as novel dual inhibitors of amyloid-β aggregation and monoamine oxidases with high antioxidant potency for Alzheimer's therapy” (Bioorg Med Chem Lett, 2017).

SMILES strings stand for the structures. Calls of active or inactive are those of the source. The calls are words filed in the database; no cut-off is given here.

Test [1] addresses Amyloid-beta precursor protein (Homo sapiens) (UniProt P05067). As to the kind of experiment: Inhibition of self-induced Amyloid beta (1 to 42) (unknown origin) aggregation at 25 uM after 24 hrs by thioflavin T-based fluorometric assay relative to control.
Test [2] can be described thus: Antioxidant activity assessed as trolox equivalent of AAPH radical scavenging activity at 1 uM preincubated for 15 mins followed by AAPH addition measured every min for 90 mins by ORAC-FL assay. The format is functional.
Test [3] deals with T1, Amine oxidase [flavin-containing] A (Homo sapiens, UniProt P21397).
T1 sequence (P21397 whole entry): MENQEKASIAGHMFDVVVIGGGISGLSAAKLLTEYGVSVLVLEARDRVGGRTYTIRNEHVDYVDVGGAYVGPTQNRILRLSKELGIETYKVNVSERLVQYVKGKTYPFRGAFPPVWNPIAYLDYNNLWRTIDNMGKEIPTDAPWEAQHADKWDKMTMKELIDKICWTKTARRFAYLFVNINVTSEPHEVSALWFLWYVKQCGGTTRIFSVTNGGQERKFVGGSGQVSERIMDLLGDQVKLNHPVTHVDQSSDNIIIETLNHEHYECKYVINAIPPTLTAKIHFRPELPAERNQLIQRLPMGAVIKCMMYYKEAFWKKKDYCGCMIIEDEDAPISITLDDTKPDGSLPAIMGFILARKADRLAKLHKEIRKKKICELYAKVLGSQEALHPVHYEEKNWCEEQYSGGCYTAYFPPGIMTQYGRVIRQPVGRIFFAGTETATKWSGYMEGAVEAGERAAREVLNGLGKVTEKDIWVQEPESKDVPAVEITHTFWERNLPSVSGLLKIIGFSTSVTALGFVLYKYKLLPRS
As to the kind of experiment: Inhibition of recombinant human MAO-A using kynuramine as substrate after 30 mins by fluorescence assay.

Test [4] has as its target T2, Amine oxidase [flavin-containing] B (Homo sapiens, UniProt P27338).
T2 sequence (P27338 whole entry): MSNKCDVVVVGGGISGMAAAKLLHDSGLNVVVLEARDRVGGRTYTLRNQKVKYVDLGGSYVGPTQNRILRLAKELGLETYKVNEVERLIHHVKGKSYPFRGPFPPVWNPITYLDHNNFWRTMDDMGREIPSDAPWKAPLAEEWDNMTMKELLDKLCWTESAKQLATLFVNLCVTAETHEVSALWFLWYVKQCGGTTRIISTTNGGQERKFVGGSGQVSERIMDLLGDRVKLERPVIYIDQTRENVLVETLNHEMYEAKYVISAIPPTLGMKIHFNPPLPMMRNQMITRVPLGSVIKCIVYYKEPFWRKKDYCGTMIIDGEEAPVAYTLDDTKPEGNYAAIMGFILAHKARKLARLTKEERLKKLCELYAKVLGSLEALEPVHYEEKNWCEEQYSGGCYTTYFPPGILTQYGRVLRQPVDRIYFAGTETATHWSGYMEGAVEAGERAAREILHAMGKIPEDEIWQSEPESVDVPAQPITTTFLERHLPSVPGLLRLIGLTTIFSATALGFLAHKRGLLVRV
Description: Inhibition of recombinant human MAO-B using kynuramine as substrate after 30 mins by fluorescence assay

The species entered for test [5] is Homo sapiens. As to the kind of experiment: Selectivity index, ratio of IC50 for recombinant human MAO-A to IC50 for recombinant human MAO-B.
The target of test [6] is T2, Amine oxidase [flavin-containing] B. As to the kind of experiment: Inhibition of recombinant human MAO-B at 10 uM using kynuramine as substrate after 30 mins by fluorescence assay. The following applies: 0.5 h.
For test [7], the target named is T1, Amine oxidase [flavin-containing] A. As to the kind of experiment: Inhibition of recombinant human MAO-A at 10 uM using kynuramine as substrate after 30 mins by fluorescence assay. The following applies: 0.5 h.

Chain of Amyloid-beta precursor protein (Homo sapiens) (P05067 whole entry): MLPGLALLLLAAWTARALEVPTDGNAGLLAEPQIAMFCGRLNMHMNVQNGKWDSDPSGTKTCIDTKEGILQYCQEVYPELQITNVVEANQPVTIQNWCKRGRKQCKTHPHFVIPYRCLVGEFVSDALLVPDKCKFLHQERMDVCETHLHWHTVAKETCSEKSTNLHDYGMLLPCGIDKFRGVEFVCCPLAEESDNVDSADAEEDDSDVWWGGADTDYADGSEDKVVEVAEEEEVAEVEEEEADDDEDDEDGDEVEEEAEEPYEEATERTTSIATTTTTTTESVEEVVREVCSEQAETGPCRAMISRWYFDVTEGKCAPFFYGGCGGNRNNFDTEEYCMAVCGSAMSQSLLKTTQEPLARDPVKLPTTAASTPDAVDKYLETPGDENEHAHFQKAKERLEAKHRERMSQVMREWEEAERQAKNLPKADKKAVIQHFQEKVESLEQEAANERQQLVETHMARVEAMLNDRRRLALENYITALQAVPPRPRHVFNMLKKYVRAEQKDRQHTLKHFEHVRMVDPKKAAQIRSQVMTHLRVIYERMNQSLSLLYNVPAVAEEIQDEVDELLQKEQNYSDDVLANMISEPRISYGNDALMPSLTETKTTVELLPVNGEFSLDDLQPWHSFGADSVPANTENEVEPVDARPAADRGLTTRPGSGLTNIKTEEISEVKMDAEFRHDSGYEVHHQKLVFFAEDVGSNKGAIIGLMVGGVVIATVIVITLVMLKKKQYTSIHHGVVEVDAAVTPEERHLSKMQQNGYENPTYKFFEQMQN

For orientation: inhibition means the relative decrease from the control value, in per cent. `CCCCC1OC(=O)c2cc(N3N=C(C)CC3=O)ccc21` (stereo unspecified): the inhibition in test [1] lay in the range of 50.1 to 71.5%. Further, in test [2], the Activity is 1.03 µMequiv/µM.
On the same counts, the results for `CCCCC1OC(=O)c2cc(-n3nc(C(F)(F)F)cc3O)ccc21` (stereo unspecified) are 50.1 to 71.5% and 2.22 µMequiv/µM.
By IC50 is commonly meant the concentration at which inhibition is half-maximal. Molecule `CCCCCC1OC(=O)c2cc(N3N=C(C)CC3=O)ccc21` (stereo unspecified) showed an inhibition in test [1] of 50.1 to 71.5%. Further, the figures for the IC50 in test [3] and in test [4] were 19.3 µM and 12.9 µM, respectively. Also, in test [5], the Ratio IC50 was 1.5. For the same molecule, in test [2], the Activity amounted to 0.62 µMequiv/µM.
For `CCCCC1OC(=O)c2ccccc21` (racemic) [RAC-3-N-BUTYLPHTHALIDE], the inhibition in test [1] worked out at 1.2%. The inhibition at 10 µM was 18.2% in test [6] and 11.2% in test [7]. The Activity in test [2] turned out to be 0.21 µMequiv/µM.
In test [1], `COc1cc(/C=C/C(=O)CC(=O)/C=C/c2ccc(O)c(OC)c2)ccc1O` showed an inhibition of 39%.
The molecule `CC1=NN(c2ccccc2)C(=O)C1` [EDARAVONE] showed an inhibition in test [1] of 20.1%. For the same molecule, the inhibition at 10 µM is 7.29% in test [6] and under 5% in test [7]. Also, in test [2], the Activity was 0.72 µMequiv/µM.
As for `CCCCCCCC1OC(=O)c2cc(-n3nc(C(F)(F)F)cc3O)ccc21` (stereo unspecified), the inhibition entry in test [1] was “inactive”. The Activity in test [2] came out at 2.21 µMequiv/µM.
`CCCCCCC1OC(=O)c2cc(N3N=C(C)CC3=O)ccc21` (stereo unspecified) came in with an inhibition in test [1] of 50.1 to 71.5%. Further, the IC50 in test [3] was 15.2 µM; in test [4], 7.59 µM. Besides, the Ratio IC50 in test [5] was determined as 2. In addition, the Activity in test [2] came out at 0.85 µMequiv/µM.
Molecule `CCCCCCCC1OC(=O)c2cc(N3N=C(C)CC3=O)ccc21` (stereo unspecified) showed an inhibition in test [1] of 71.5%. For the same molecule, the Activity in test [2] was 1.18 µMequiv/µM.
The matching figures for `CCCCCC1OC(=O)c2cc(-n3nc(C(F)(F)F)cc3O)ccc21` (stereo unspecified): “inactive” and 2.37 µMequiv/µM.
On the same counts, the results for `CCCCCCC1OC(=O)c2cc(-n3nc(C(F)(F)F)cc3O)ccc21` (stereo unspecified) are “inactive” and 2.28 µMequiv/µM.
